Experimental data from paper PMC12155096 (International Journal of Molecular Sciences, 2025).
Counter-ions that a name gives are not always drawn. Like-named read-outs stand apart in the source and are kept apart here.

Key:
[1] = target: Photinus pyralis (firefly) luciferase (Photinus pyralis, UniProt P08659); experiment: biochemical; format: biochemical
human CYP1A2 [2] = target: T1, human CYP1A2 (Homo sapiens, UniProt P05177); settings: for CYP1A2 Efficacy (in parenthesis): human
T1 sequence (P05177 1-516): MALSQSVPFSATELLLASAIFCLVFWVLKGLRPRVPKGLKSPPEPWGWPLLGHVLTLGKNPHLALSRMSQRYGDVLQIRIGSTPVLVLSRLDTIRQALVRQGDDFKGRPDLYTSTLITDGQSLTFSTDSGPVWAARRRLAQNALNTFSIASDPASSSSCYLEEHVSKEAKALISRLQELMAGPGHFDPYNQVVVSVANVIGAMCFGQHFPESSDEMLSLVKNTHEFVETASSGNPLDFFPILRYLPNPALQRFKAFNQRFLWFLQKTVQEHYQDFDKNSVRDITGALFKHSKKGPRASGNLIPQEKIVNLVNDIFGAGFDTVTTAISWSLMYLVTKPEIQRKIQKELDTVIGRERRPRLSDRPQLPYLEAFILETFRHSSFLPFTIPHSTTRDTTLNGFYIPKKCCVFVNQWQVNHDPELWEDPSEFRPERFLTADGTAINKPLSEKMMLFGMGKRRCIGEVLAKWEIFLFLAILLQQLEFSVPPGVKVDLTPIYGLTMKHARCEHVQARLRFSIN

human CYP2C9 [3] = target: T2, human CYP2C9 (Homo sapiens, UniProt P11712); settings: for CYP2C9 Efficacy (in parenthesis): human
human CYP2C19 [4] = target: T3, human CYP2C19 (Homo sapiens, UniProt P33261); settings: for CYP2C19 Efficacy (in parenthesis): human
human CYP2D6 [5] = target: T4, human CYP2D6 (Homo sapiens, UniProt P10635); settings: human
human CYP1A2 [6] = target: T1, human CYP1A2; experiment: biochemical
human CYP2C9 [7] = target: T2, human CYP2C9; experiment: biochemical
human CYP2C19 [8] = target: T3, human CYP2C19; experiment: biochemical
human CYP2D6 [9] = target: T4, human CYP2D6; experiment: biochemical
CYP3A4 = CYP3A4 (Homo sapiens, UniProt P08684)
[10] = CYP2C9 IC50 (half-maximal inhibitory concentration)
[11] = CYP2C19 IC50 (half-maximal inhibitory concentration)
[12] = CYP2D6 IC50 (half-maximal inhibitory concentration)

Sequence of Photinus pyralis (firefly) luciferase (P08659 whole entry): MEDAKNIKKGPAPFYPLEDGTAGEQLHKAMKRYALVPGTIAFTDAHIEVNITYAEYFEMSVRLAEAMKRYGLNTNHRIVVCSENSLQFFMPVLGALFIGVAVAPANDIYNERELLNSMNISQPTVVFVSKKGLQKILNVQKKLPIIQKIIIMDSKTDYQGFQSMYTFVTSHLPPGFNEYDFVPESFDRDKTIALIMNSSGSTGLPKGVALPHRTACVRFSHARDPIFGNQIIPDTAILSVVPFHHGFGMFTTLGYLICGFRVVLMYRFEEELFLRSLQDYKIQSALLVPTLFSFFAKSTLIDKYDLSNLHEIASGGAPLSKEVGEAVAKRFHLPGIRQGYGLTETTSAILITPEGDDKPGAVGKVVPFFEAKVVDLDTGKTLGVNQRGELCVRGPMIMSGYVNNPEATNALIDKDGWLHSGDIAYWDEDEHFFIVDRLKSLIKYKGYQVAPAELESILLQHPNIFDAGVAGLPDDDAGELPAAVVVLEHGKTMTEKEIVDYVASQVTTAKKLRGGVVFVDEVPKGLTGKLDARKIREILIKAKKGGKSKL
T3 sequence (P33261 whole entry): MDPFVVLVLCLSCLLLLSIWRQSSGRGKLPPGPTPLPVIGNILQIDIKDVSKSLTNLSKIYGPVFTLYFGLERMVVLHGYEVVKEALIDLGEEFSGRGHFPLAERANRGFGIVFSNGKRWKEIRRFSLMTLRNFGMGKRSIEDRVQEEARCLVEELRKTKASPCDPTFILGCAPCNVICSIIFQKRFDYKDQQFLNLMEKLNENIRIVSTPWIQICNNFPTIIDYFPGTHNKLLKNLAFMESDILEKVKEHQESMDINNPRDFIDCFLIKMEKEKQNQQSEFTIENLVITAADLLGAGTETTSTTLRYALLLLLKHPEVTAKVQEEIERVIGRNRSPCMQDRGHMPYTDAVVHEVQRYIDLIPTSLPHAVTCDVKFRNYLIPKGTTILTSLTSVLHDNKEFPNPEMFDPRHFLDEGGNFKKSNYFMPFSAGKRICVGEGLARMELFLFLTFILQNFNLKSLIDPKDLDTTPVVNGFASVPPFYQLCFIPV
T2 sequence (P11712 whole entry): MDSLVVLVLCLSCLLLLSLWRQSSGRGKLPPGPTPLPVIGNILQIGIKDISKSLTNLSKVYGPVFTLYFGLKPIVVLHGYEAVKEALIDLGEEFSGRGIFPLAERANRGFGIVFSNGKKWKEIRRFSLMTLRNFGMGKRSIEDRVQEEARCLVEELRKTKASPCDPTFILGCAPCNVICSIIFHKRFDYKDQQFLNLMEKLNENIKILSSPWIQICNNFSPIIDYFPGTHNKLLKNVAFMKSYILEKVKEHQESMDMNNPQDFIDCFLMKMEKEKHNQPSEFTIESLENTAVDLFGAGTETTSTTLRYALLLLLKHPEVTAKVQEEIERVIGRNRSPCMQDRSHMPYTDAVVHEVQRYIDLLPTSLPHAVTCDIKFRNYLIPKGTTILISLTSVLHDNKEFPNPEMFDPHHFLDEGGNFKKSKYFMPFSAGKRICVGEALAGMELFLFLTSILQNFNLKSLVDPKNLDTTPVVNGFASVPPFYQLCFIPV
Sequence of CYP3A4 (P08684 whole entry): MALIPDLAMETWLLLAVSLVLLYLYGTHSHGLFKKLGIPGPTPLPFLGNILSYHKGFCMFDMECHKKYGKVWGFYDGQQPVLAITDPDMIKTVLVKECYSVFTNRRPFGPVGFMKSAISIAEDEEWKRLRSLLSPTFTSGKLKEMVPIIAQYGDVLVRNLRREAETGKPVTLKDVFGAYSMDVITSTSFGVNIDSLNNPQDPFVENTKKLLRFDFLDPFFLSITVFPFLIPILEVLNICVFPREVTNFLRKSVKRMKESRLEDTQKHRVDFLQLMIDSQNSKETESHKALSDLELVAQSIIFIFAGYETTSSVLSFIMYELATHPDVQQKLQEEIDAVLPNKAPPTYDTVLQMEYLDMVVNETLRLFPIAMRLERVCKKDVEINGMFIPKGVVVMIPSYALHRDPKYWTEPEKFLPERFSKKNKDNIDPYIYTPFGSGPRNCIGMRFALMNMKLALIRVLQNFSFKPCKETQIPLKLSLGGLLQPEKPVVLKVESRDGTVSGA
T4 sequence (P10635 whole entry): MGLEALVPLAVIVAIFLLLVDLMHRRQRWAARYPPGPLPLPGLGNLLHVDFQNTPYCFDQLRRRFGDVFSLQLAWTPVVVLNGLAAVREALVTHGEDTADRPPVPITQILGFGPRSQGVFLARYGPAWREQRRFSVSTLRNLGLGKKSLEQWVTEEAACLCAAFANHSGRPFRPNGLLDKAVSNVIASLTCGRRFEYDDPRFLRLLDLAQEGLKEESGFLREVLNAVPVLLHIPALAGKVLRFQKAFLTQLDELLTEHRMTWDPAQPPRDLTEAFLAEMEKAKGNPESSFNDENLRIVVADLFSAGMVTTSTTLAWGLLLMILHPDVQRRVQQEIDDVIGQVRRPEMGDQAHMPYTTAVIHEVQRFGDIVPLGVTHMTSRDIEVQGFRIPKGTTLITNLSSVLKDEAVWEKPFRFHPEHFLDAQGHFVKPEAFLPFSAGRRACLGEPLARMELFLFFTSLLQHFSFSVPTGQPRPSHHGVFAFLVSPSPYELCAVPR

Row | SMILES | CYP2D6 Efficacy (in parenthesis) (human CYP2D6 [5]) | IC50 (human CYP2C19 [8]; [11]) [µM] | IC50 (human CYP2D6 [9]; [12]) [µM] | Luciferase IC50 [1] | CYP1A2 IC50 (human CYP1A2 [2]) | CYP3A4 IC50 (CYP3A4) | IC50 (human CYP2D6 [9]) [µM] | Luciferase IC50 (half-maximal inhibitory concentration) [1] | CYP1A2 IC50 (half-maximal inhibitory concentration) (human CYP1A2 [2]) | CYP2C9 IC50 (half-maximal inhibitory concentration) (human CYP2C9 [3]) | CYP3A4 IC50 (half-maximal inhibitory concentration) (CYP3A4) | other results
1 | O=[N+]([O-])c1c2ccccc2cc2ccccc12 [9-Nitroanthracene] | 34.03 ± 2.33 (-39 ± 13) % | 19.9 | 34 |  |  |  |  |  |  |  |  | IC50 [1]: 22.6 µM; CYP1A2 Efficacy (in parenthesis) (human CYP1A2 [2]): 0.27 ± 0.04 (-96 ± 5) %; CYP2C9 Efficacy (in parenthesis) (human CYP2C9 [3]): 13.51 ± 1.21 (-86 ± 11) %; CYP2C19 Efficacy (in parenthesis) (human CYP2C19 [4]): 19.86 ± 2.28 (-116 ± 4) %; IC50 (human CYP1A2 [6]; CYP1A2 IC50 (half-maximal inhibitory concentration)): 0.27 µM; IC50 (human CYP2C9 [7]; [10]): 13.5 µM
2 | CCc1cccc(N(C)C(N)=Nc2cccc3ccccc23)c1 [Aptiganel hydrochloride] |  |  |  | Inactive | Inactive | Inactive |  |  |  |  |  | IC50 (human CYP2D6 [9]; CYP2D6 IC50): 0.14 µM
3 | CN1CCC(N(Cc2ccccc2)c2ccccc2)CC1 [Bamipine] |  |  |  | Inactive | Inactive | Inactive | 0.38 |  |  |  |  | CYP2C9 IC50 (human CYP2C9 [3]): Inactive; IC50 (human CYP2C19 [8]): 36.8 µM
4 | c1ccc2cc3c(ccc4ccccc43)cc2c1 [Benz(a)anthracene] |  |  |  |  |  | Inactive |  |  |  |  |  | IC50 [1]: 6.12 µM; IC50 (human CYP1A2 [6]; CYP1A2 IC50): 0.86 µM; IC50 (human CYP2C9 [7]; CYP2C9 IC50): 36.4 µM; IC50 (human CYP2C19 [8]; CYP2C19 IC50): 15.9 µM; IC50 (human CYP2D6 [9]; CYP2D6 IC50): 50.5 µM
5 | CN(C)CCCSc1ccccc1NC(=O)/C=C/c1ccccc1 [Cinanserin] | 0.52 ± 0.22 (-96 ± 14) % | 29.6 | 0.52 |  |  |  |  | Inactive | Inactive | Inactive | Inactive | CYP2C19 Efficacy (in parenthesis) (human CYP2C19 [4]): 29.59 ± 16.13 (-78 ± 38) %
6 | Clc1ccccc1C(c1ccccc1)(c1ccccc1)n1ccnc1 [Clotrimazole] | 46.25 ± 14.89 (-110 ± 18) % | 3.88 | 46.2 |  |  |  |  | Inactive |  |  |  | CYP1A2 Efficacy (in parenthesis) (human CYP1A2 [2]): 9.92 ± 2.76 (-108 ± 12) %; CYP2C9 Efficacy (in parenthesis) (human CYP2C9 [3]): 1.14 ± 0.44 (-107 ± 6) %; CYP2C19 Efficacy (in parenthesis) (human CYP2C19 [4]): 3.88 ± 0.66 (-140 ± 14) %; CYP3A4 Efficacy (in parenthesis) (CYP3A4): 0.02 ± 0.01 (-96 ± 6) %; IC50 (human CYP2C9 [7]; [10]): 1.14 µM
7 | NC(=O)C(c1ccccc1)(c1ccccc1)[C@@H]1CCN(CCc2ccc3c(c2)CCO3)C1 [Darifenacin hydrobromide] | 0.41 ± 0.07 (-99 ± 4) % |  | 0.41 |  |  |  |  | Inactive | Inactive | Inactive | Inactive | CYP2C19 IC50 (half-maximal inhibitory concentration) (human CYP2C19 [4]): Inactive
8 | C1CCC(NC2CCCCC2)CC1 [Dicyclohexylamine] |  |  |  | Inactive | Inactive | Inactive | 0.28 |  |  |  |  | CYP2C9 IC50 (human CYP2C9 [3]): Inactive; CYP2C19 IC50 (human CYP2C19 [4]): Inactive
9 | OC(CCCN1CCCCC1)(c1ccccc1)c1ccccc1 [Diphenidol] |  | 32.7 | 0.09 |  |  |  |  | Inactive | Inactive | Inactive | Inactive | 
10 | CC(Cc1ccccc1)N(C)Cc1ccco1 (stereo not shown) [Furfenorex] |  |  |  | Inactive | Inactive | Inactive |  |  |  |  |  | CYP2C9 IC50 (human CYP2C9 [3]): Inactive; IC50 (human CYP2C19 [8]; CYP2C19 IC50): 6.65 µM; IC50 (human CYP2D6 [9]; CYP2D6 IC50): 0.85 µM
11 | CN1[C@@H]2CC[C@H]1C[C@@H](NC(=O)n1c(=O)[nH]c3ccccc31)C2 [Itasetron] |  |  |  |  |  |  | 0.87 ± 0.1 | Inactive | Inactive | Inactive | Inactive | CYP2C19 IC50 (half-maximal inhibitory concentration) (human CYP2C19 [4]): Inactive
12 | COC(=O)C1=C(C)NC(C)=C(C(=O)OCCN2CCN(C(c3ccccc3)c3ccccc3)CC2)C1c1cccc([N+](=O)[O-])c1 (stereo not shown) [Manidipine] |  |  |  |  |  |  | 6.17 ± 5.32 | Inactive | Inactive |  | Inactive | IC50 (human CYP2C9 [7]): 0.52 ± 0.3 µM; IC50 (human CYP2C19 [8]): 2.39 ± 2.01 µM
13 | c1ccc2c(c1)Sc1ccccc1N2CC1CN2CCC1CC2 (stereo not shown) [Mequitazine] |  |  | 0.29 |  |  |  |  | Inactive | Inactive | Inactive | Inactive | CYP2C19 IC50 (half-maximal inhibitory concentration) (human CYP2C19 [4]): Inactive
